Paper PMC10786919, “Design-rules for stapled peptides with in vivo activity and their application to Mdm2/X antagonists” (Nature Communications, 2024)
Values after ≈ are worked out from the molar mass of the structure shown. Like-named read-outs stand apart in the source and are kept apart here. Positions of bridges follow the written chain, without caps; N, C: chain ends. Non-standard residues stand in square brackets, D forms with d. Residues, ends and D or L forms follow the SMILES beside them. R8 = C=CCCCCCC[C@@](C)(N)C(=O)O; S5 = C=CCCC[C@](C)(N)C(=O)O

Tests used:
[1] = Circular dichroism (CD) helicity; type: physicochemical
Method: A total of 5 µL of the 10 mM stock peptide was mixed with 45 µL of 100% methanol, and dried for 2 h in the SpeedVac concentrator (Thermo Scientific). The dried peptide was reconstituted in a buffer (1 mM Hepes pH 7.4 and 5% methanol) to a concentration of 1 mM. The peptide sample was placed in a quartz cuvette with a path length of 0.2 cm. The peptide concentration was determined by the absorbance of the peptide at […]. The CD spectrum was recorded from 300 to 190 nm using the Chirascan-plus qCD machine (Applied Photophysics, Surrey, UK), at 25 °C. All experiments were done in duplicates. The CD spectrum was converted to mean residue ellipticity before deconvolution and estimation of the secondary structure components of the peptide using the CDNN software (distributed by Applied Photophysics). Measurements were taken at least twice and were reported as arithmetic means.

[2] = system: p53 responsive β-lactamase reporter in HCT116 cells; test: cells; type: cell-based
Method in brief: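 HCT116 cells stably carrying a p53-responsive β-lactamase reporter, seeded at 8000 cells/well, with 0.5% DMSO final. Reporter activity read by ToxBLAzer Dual Screen. Values are geometric means of at least three biological replicates.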

[3] = Lactate dehydrogenase (LDH) release assay; type: cell-based
Method in brief: (§1)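 Geometric means of at least three independent biological runs are given for LDH release measured in HCT116 cells stably expressing a p53-driven β-lactamase reporter. Plating density was 8000 cells/well; DMSO in wells was 0.5%.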

HCT116 cells = test: Lactate dehydrogenase (LDH) release assay; type: cell-based
Method in brief: as §1

[4] = system: Jump-In T-REx CHO-K1 BLA cells; test: cells; type: cell-based
[5] = Experimental LogD (partition coefficient); conditions: not stated, Partition Coeff LogD
[6] = Solubility assay (kinetic solubility, PBS pH 7); type: physicochemical; conditions: pH 7, aqueous buffer, kinetic from dmso stock, pH 7, PBS; read-out: Solubility
Method in brief: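 Next, measure peak areas of sample and standard. Finally, multiply their ratio by the standard concentration to obtain solubility (µM).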

human Mdm2 1–125 = target: T1, human Mdm2 1–125 (Homo sapiens, UniProt Q00987); test: Mdm2 binding by competitive fluorescence anisotropy assay (FP binding); conditions: read-out: FP binding assay KD
T1 construct: GST (N); His6 (internal); TEV cleavage site (ENLYFQG) (internal); made in house; host or cells: BL21 (DE3) Rosetta T1R Escherichia coli

[7] = 0% FBS 4Hr, read-out: p53 reporter assay: EC50
[8] = 0% FBS 4Hr, read-out: TETCHO: Counterscreen EC50

T1 sequence (Q00987 with tags, fused parts or gaps): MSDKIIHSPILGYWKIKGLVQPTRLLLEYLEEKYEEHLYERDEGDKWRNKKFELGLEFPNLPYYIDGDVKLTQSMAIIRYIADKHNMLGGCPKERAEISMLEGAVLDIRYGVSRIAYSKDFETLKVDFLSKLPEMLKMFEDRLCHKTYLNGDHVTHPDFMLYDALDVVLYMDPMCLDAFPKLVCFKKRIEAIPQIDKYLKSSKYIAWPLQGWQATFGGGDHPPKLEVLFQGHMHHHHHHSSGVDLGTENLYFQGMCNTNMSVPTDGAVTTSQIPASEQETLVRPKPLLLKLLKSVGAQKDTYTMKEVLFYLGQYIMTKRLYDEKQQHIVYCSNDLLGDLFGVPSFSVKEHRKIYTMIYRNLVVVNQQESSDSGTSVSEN

Structure (SMILES): CC(=O)N[C@H](C(=O)N[C@@H](CO)C(=O)NC(C)(Cc1ccccc1)C(=O)N[C@]1(C)CCCCCCC=CCCC[C@@](C)(C(N)=O)NC(=O)[C@H](CC(C)C)NC(=O)[C@H](CC(C)C)NC(=O)[C@H](C)NC(=O)[C@H](Cc2c[nH]c3ccccc23)NC(=O)[C@H](Cc2ccc(O)cc2)NC(=O)[C@H](CCC(=O)O)NC1=O)[C@@H](C)O (stereo partly drawn) [MP-159]
- EPSA (physchem): 210 A^2
- CD % Helicity [1]: 40.4%
- EC50 [2, 7]: 37.4 µM
- EC50 ([3]; LDH: Cytotoxicity assay: EC50): 21.6 µM
- LDH: Cytotoxicity assay: % Effect (HCT116 cells): 47.15%
- TETCHO: Counterscreen % Effect ([4]; 0% FBS 4Hr): 165.5%
- EC50 [4, 8]: 30.1 µM
- TETCHO: Counterscreen % Effect ([4]; 0% FBS 16Hr): 55.93%
- logD [5]: 2.75
- solubility kinetic [6]: 85.5 µM (≈ 126 µg/mL)
- Kd (human Mdm2 1–125): 0.52 µM

Structure (SMILES): CC(=O)N[C@@H](CC(C)C)C(=O)N[C@H](C(=O)N[C@@H](Cc1ccccc1)C(=O)N[C@]1(C)CCCCCCC=CCCC[C@@](C)(C(=O)N[C@@H](C)C(=O)N[C@@H](C)C(=O)N[C@@H](C)C(=O)N[C@@H](C)C(=O)N[C@@H](C)C(=O)N[C@@H](C)C(N)=O)NC(=O)[C@H](CC(C)C)NC(=O)[C@H](CCC(N)=O)NC(=O)[C@H](C)NC(=O)[C@H](Cc2c[nH]c3ccccc23)NC(=O)[C@H](Cc2ccc(O)cc2)NC(=O)[C@H](CCC(=O)O)NC1=O)[C@@H](C)O [MP-688] (Ac-LTF[R8]EYWAQL[S5]AAAAAA-NH2; staple 4-11)
- CD % Helicity [1]: 49.8%
- Aqueous solution helicity ([1]; circular dichroism): 49.8%
- EC50 ([2]; 0% FBS 4Hr, read-out: p53 reporter assay EC50): 0.157 µM
- EC50 ([2]; 10% FBS 16Hr, read-out: p53 reporter assay EC50): 1.35 µM
- EC50 ([2]; read-out: Cell EC50 (4 hr, 0% FBS), p53 reporter assay, 4 hr, 0% FBS): 0.16 µM
- EC50 ([2]; read-out: Cell EC50 (16 hr, 10% FBS), p53 reporter assay, 16 hr, 10% FBS): 1.3 µM
- EC50 ([3]; 0% FBS 4Hr, read-out: LDH: Cytotoxicity assay EC50): > 50.7 µM
- EC50 ([3]; 10% FBS 16Hr, read-out: LDH: Cytotoxicity assay EC50): > 50.7 µM
- EC50 [4, 8]: > 50.4 µM
- EC50 ([4]; 10% FBS 16Hr, read-out: TETCHO: Counterscreen EC50): > 50.4 µM

Structure (SMILES): CC(=O)N[C@@H](CC(C)C)C(=O)N[C@H](C(=O)N[C@@H](Cc1ccccc1)C(=O)N[C@]1(C)CCCCCCC=CCCC[C@@](C)(C(=O)N[C@@H](CO)C(=O)N[C@@H](C)C(=O)N[C@@H](C)C(N)=O)NC(=O)[C@H](CC2CCC2)NC(=O)[C@H](Cc2c[nH]cn2)NC(=O)[C@H](C)NC(=O)[C@H](Cc2c[nH]c3ccccc23)NC(=O)[C@H](Cc2ccc(O)cc2)NC(=O)[C@H](CCC(=O)O)NC1=O)[C@@H](C)O [MP-501, ATSP-7041 (Q8H)]
- CD % Helicity [1]: 29.1%
- EC50 [2, 7]: 2.5 µM
- EC50 ([2]; 0% FBS 16Hr, read-out: p53 reporter assay: EC50): 28.6 µM
- EC50 ([3]; 0% FBS 4Hr, read-out: LDH: Cytotoxicity assay: EC50): > 50 µM
- LDH: Cytotoxicity assay: % Effect (HCT116 cells; 0% FBS 4Hr): 4.045%
- TETCHO: Counterscreen % Effect ([4]; 0% FBS 4Hr): 216%
- EC50 [4, 8]: 18.9 µM
- TETCHO Counterscreen % Effect ([4]; 4 hours, 0% serum, efficacy at 50 μM relative to tetracycline control): 216%
- EC50 ([4]; 4 hours, 0% serum, read-out: TETCHO Counterscreen EC50): 18.9 µM
